Columns and labels:
[1] = Quantum yield of free probe not reacted with protein tag; type: physicochemical
Procedure: (§1) A probe was mixed with a corresponding HaloTag protein tag to obtain a mixed sample. The final concentration of the probe in the mixed sample was 5 μM and the final concentration of the protein tag was 10 μM. The mixed sample was incubated at 37° C. for 1 hour, and the sample was detected using a fluorescence spectrophotometer.

[2] = Viscosity responsiveness: fluorescence intensity in glycerol versus methanol; type: physicochemical; settings: fluorescence intensity in glycerol to that in methanol
Procedure: The above-mentioned viscosity-responsive fluorescent dye means that the fluorescence intensity of the dye responds to the viscosity of the solution. As the viscosity of the solution increases, the fluorescence intensity increases. Optionally, the viscosity-responsive fluorescent dye is an organic dye molecule which, under the same concentration and excitation wavelength, at 25° C. has a ratio • of the maximum fluorescence emission intensity of the dye in glycerol to the fluorescence intensity in methanol of greater than 2, optionally greater than 5, optionally greater than 10. The concentration of the viscosity-responsive dye ranges from 1×10^−7 M to 1×10^−5 M.

HaloTag protein tag = assay: Probe mixed with HaloTag protein tag, fluorescence spectrophotometer (Example 86); type: biochemical; settings: 5 μM probe, 10 μM protein tag, 37° C., 1 hour; for Fluorescence enhancement: fluorescence activation multiple after binding protein tag; for Emission/nm: fluorescence emission wavelength
Procedure: as §1

| SMILES | The quantum yield of the free probe [1] | ratio [2] | The quantum yield after binding to Halo-tag (HaloTag protein tag) | Fluorescence enhancement (HaloTag protein tag) | Emission/nm (HaloTag protein tag) [nm] |
| --- | --- | --- | --- | --- | --- |
| CC1=CC(C)(C)N(CCOC(=O)NCCOCCOCCCCCCCl)c2ccc(/C=C(\C#N)C(=O)O)cc21 [Probe 47] | <0.001 | 235 | 0.45 | 358 | 523 |
| CN(CCOC(=O)NCCOCCOCCCCCCCl)c1cc2c(s1)-c1sc(/C=C(\C#N)C(=O)OC(C)(C)C)cc1C2(C)C [Probe 48] | <0.001 | 480 | 0.57 | 428 | 645 |
| CN(CCOC(=O)NCCOCCOCCCCCCCl)c1cc2c(s1)-c1sc(/C=C(\C#N)c3nc4ccccc4o3)cc1C2(C)C [Probe 49] | <0.001 | 334 | 0.54 | 541 | 680 |
| CN(CCOC(=O)NCCOCCOCCCCCCCl)c1cc2c(s1)-c1sc(/C=C(\C#N)C(=O)O)cc1C2(C)C [Probe 50] | <0.001 | 358 | 0.53 | 416 | 637 |
| CN(CCOC(=O)NCCOCCOCCCCCCCl)c1ccc2c(c1)C(C)(C)c1cc(/C=C(/C#N)C(=O)OC(C)(C)C)ccc1-2 [Probe 51] | <0.001 | 359 | 0.48 | 392 | 625 |
| COCCNC(=S)/C(C#N)=C/c1cc2c(s1)-c1sc(N(C)CCOC(=O)NCCOCCOCCCCCCCl)cc1C2(C)C [Probe 52] | <0.001 | 270 | 0.47 | 435 | 670 |
| COCCNC(=S)/C(C#N)=C/c1cc2c(s1)-c1sc(N(C)CCOC(=O)NCCOCCOCCCCCCCl)cc1[Si]2(C)C [Probe 54] | <0.001 | 391 | 0.41 | 498 | 710 |
| CN1C(=O)/C(=C\c2cc3c(s2)-c2sc(N(C)CCOC(=O)NCCOCCOCCCCCCCl)cc2C3(C)C)SC1=S [Probe 55] | <0.001 | 211 | 0.39 | 382 | 660 |
| CN1C(=O)/C(=C\c2cc3c(s2)-c2sc(N(C)CCOC(=O)NCCOCCOCCCCCCCl)cc2[Si]3(C)C)SC1=S [Probe 56] | <0.001 | 436 | 0.47 | 989 | 725 |
| CN(CCO)c1ccc(/C=C(\C#N)C(=O)NCCOCCOCCCCCCCl)cc1 [Probe 58] | <0.001 | 419 | 0.58 | 519 | 480 |
| CN(C)c1ccc2cc(/C=C(\C#N)C(=O)OCCOCCOCCCCCCCl)sc2c1 [Probe 64] | <0.001 | 632 | 0.60 | 519 | 585 |
| CN(CCO)c1ccc2cc(/C=C(\C#N)C(=O)NCCOCCOCCCCCCCl)sc2c1 [Probe 65] | <0.001 | 391 | 0.66 | 798 | 570 |
| CNc1ccc2cc(/C=C(\C#N)C(=O)NCCOCCOCCCCCCCl)sc2c1 [Probe 66] | <0.001 | 386 | 0.53 | 512 | 550 |
| CN(C)c1ccc2cc(/C=C(\C#N)C(=O)NCCCCCCCl)sc2c1 [Probe 67] | <0.001 | 276 | 0.48 | 576 | 580 |
| CN(C)c1ccc2cc(/C=C(\C#N)C(=O)NCCOCCCl)sc2c1 [Probe 68] | <0.001 | 381 | 0.50 | 681 | 580 |
| CN(C)c1ccc2nc(/C=C(\C#N)C(=O)NCCOCCOCCCCCCCl)sc2c1 [Probe 71] | 0.0028 | 321 | 0.61 | 475 | 620 |
| CN(C)c1ccc2nc(/C=C(\C#N)C(=O)OCCOCCOCCCCCCCl)sc2c1 [Probe 72] | 0.001 | 268 | 0.47 | 486 | 640 |
| CN(C)c1cc2c(s1)-c1sc(/C=C3\SC(=O)N(CCOCCOCCCCCCCl)C3=O)cc1C2(C)C [Probe 78] | <0.001 | 452 | 0.41 | 369 | 660 |
| CN(C)c1cc2c(s1)-c1sc(/C=C3\SC(=S)N(CCOCCOCCCCCCCl)C3=O)cc1C2(C)C [Probe 79] | <0.001 | 498 | 0.51 | 419 | 725 |
| CN(C)c1ccc(-c2ccc(/C=C3\SC(=O)N(CCOCCOCCCCCCCl)C3=O)s2)s1 [Probe 81] | <0.001 | 521 | 0.40 | 563 | 743 |
| CN(C)c1cc2c(s1)-c1sc(/C=C(\C#N)C(=S)NCCOCCOCCCCCCCl)cc1[Si]2(C)C [Probe 83] | <0.001 | 652 | 0.53 | 456 | 680 |
| CN(C)c1ccc(-c2ccc(/C=C(\C#N)C(=S)NCCOCCOCCCCCCCl)s2)s1 [Probe 84] | <0.001 | 522 | 0.47 | 431 | 680 |
| CN(C)c1ccc2c(c1)C(C)(C)c1cc(/C=C(\C#N)C(=O)NCCOCCOCCCCCCCl)sc1-2 [Probe 86] | 0.0012 | 470 | 0.52 | 618 | 550 |

From patent US12492337B2, “Fluorescent probe, preparation method therefor and use thereof” (FLUORESCENCE DIAGNOSIS (SHANGHAI) BIOTECH COMPANY, priority 2017, dated 2025)
